Experiments:
[1] = target: T1, cell-surface PDGF receptors (Rattus norvegicus, UniProt Q05030); assay: Inhibition of 125I-PDGF-BB binding to rat SMCs; settings: for 125I PDGF-BB Bound (CPM): specific cpm, nonspecific subtracted, negative control 10006
T1 construct: endogenous in cells; host or cells: rat smooth muscle cells (SMCs), monolayer culture
Description: NNC92-0270 was analyzed for the ability to inhibit ^125 I-PDGF-BB binding to monolayers of rat SMCs. To assay for inhibition of ^125 I-PDGF-BB binding to rat SMCs, the SMCs were plated at approximately 20,000 cells/well in 24-well culture dishes. The cells were used for assay 2-7 days after plating. The test compound was diluted in binding media (500 ml Ham's F-12 (Gibco BRL), 12 ml 1M Hepes pH 7.4, 5 ml 100×PSN (Gibco BRL), 1 gm rabbit serum albumin (Sigma Chemical Co., St. Louis, Mo.) to the concentrations shown in Table 2, then added to the SMCs (1 ml/well) in triplicate. To the wells was then added 50 μl of a ^125 I-PDGF-BB stock solution. Binding media alone was used as the negative control, and the addition of 200 ng/ml of PDGF-BB was used to determine nonspecific binding for ^125 I-PDGF-BB. The cells were incubated for approximately 11/2 hours at 4° C., then washed with binding media to remove unbound ligand. The cells were then incubated with extraction buffer (20 mM Tris-HCl, pH 8.0, 100 mM NaCl, 1 mM EDTA, 0.5% Nonident P-40, 0.5% sodium deoxycholate, 10 mM NaI, 1% bovine serum albumin), and the extracts were harvested and counted in a gamma counter. The data are presented as specific cpm bound for ^125 I-PDGF-BB. Nonspecific binding, determined by the addition of 200 ng/ml of unlabeled PDGF-BB, was 853 cpm, and has been subtracted from the data presented.

[2] = tested on: baboon smooth muscle cells; assay: Inhibition of PDGF-BB mitogenic activity on baboon smooth muscle cells ([3H] thymidine incorporation); assay type: cell-based; settings: for 3H Thymidine (CPM Incorporated), (-) Heparin: no heparin, control 1701
Description: NNC92-0270 was analyzed for the ability to inhibit the mitogenic activity of PDGF on baboon smooth muscle cells. All mitogenesis assays performed on baboon vascular smooth muscle cells (BVSMCs) were done on primary cultures of cells between passages 13 and 20 in culture. The initial cultures were established from outgrowth of aortic tissue explants. Baboon smooth muscle cells were plated at approximately 20,000 cells per well, in DMEM supplemented with 10% fetal calf serum, into 24-well culture dishes. One day prior to use the culture media was removed, and 1 ml of Mito Media (Table 5) was added to each well to allow the cells to become quiescent. At the time of the experiment the cells were stimulated with PDGF-BB. […] 20× stock solutions were made for each of the PDGF concentrations by dilution in 10 mM acetic acid containing 0.25% albumin, and 50 ul PDGF or dilution vehicle alone was added to the culture wells.
To analyze the activity of NNC92-0270 to neutralize PDGF-BB mitogenic activity, 1 ng/ml of PDGF was added to wells along with dilutions of NNC92-0270. The cells were incubated with the test samples for approximately 20 hours at 37 ° C. Fifty microliters of a 20× stock solution of [3H] Thymidine was then added to each well to give a final concentration of 1 μCi/ml. The cells were incubated for 4 hours at 37 ° C., washed with PBS, then harvested with trypsin and counted for [^3 H] thymidine incorporation in a Wallac (Turku, Finland) Betaplate™ liquid scintillation counter.
NNC92-0270 was incubated with 1 ng/ml of PDGF-BB in the presence of 0.5 U/ml of unfractionated heparin. The cells were pulse labeled with [^3 H] thymidine as described above and the level of [^3 H] thymidine determined.

T1 sequence (Q05030 32-1097): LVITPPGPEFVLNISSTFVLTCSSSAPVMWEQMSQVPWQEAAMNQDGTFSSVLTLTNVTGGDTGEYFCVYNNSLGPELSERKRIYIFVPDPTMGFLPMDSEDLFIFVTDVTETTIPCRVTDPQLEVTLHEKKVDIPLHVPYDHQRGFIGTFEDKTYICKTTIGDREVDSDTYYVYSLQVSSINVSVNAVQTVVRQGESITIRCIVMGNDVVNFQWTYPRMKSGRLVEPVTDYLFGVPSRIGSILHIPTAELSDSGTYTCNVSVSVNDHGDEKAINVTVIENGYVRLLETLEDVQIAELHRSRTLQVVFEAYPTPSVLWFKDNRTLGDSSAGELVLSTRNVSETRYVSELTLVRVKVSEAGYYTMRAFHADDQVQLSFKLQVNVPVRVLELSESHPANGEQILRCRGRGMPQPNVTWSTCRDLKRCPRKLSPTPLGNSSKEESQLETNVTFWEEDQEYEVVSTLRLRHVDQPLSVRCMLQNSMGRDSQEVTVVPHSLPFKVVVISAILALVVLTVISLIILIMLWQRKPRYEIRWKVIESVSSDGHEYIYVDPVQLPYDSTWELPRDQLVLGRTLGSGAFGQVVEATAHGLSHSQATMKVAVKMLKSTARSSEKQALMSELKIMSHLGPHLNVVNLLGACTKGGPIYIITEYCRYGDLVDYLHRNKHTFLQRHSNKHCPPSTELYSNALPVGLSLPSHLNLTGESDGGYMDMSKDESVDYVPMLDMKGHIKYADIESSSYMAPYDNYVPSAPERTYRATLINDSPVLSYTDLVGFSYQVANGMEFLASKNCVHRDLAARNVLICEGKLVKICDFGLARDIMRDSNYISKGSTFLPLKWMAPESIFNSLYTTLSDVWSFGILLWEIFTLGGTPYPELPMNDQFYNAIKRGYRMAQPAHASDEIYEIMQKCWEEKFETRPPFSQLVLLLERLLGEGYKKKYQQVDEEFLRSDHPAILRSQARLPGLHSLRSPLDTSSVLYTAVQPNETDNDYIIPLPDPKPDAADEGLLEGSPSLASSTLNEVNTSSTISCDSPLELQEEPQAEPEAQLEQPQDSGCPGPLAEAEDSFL

Structure (SMILES): O=C(NN1CCCCC1)NS(=O)(=O)c1ccc(CCNC(=O)c2[nH]c3ccccc3c2OCc2ccccc2)cc1 [NNC92-0270]
- 125I PDGF-BB Bound (CPM) ([1]; 6.2 μM): 5228 CPM
- 125I PDGF-BB Bound (CPM) ([1]; 12.5 μM): 2823 CPM
- 125I PDGF-BB Bound (CPM) ([1]; 25 μM): 920 CPM
- 125I PDGF-BB Bound (CPM) ([1]; 50 μM): 532 CPM
- 125I PDGF-BB Bound (CPM) ([1]; 100 μM): 378 CPM
- remaining activity at 6.2 µM ([1]; 1.5 h, 6.2 μM, read-out: % Control Binding): 52%
- remaining activity at 12.5 µM ([1]; 1.5 h, 12.5 μM, read-out: % Control Binding): 28%
- remaining activity at 25 µM ([1]; 1.5 h, 25 μM, read-out: % Control Binding): 9%
- remaining activity at 50 µM ([1]; 1.5 h, 50 μM, read-out: % Control Binding): 5%
- remaining activity at 100 µM ([1]; 1.5 h, 100 μM, read-out: % Control Binding): 4%
- Inhibition of PDGF-BB binding to cell-surface PDGF receptors (in words) ([1]; rat SMCs): potent inhibitor
- 3H Thymidine (CPM Incorporated), (+) 0.5 U/ml Heparin ([2]; 6.2 μM with 1 ng/ml PDGF-BB and 0.5 U/ml heparin): 1007 CPM
- 3H Thymidine (CPM Incorporated), (-) Heparin ([2]; 6.2 μM with 1 ng/ml PDGF-BB): 1378 CPM
- 3H Thymidine (CPM Incorporated), (+) 0.5 U/ml Heparin ([2]; 12.5 μM with 1 ng/ml PDGF-BB and 0.5 U/ml heparin): 586 CPM
- 3H Thymidine (CPM Incorporated), (-) Heparin ([2]; 12.5 μM with 1 ng/ml PDGF-BB): 870 CPM
- 3H Thymidine (CPM Incorporated), (+) 0.5 U/ml Heparin ([2]; 25 μM with 1 ng/ml PDGF-BB and 0.5 U/ml heparin): 220 CPM
- 3H Thymidine (CPM Incorporated), (-) Heparin ([2]; 25 μM with 1 ng/ml PDGF-BB): 334 CPM
- 3H Thymidine (CPM Incorporated), (+) 0.5 U/ml Heparin ([2]; 50 μM with 1 ng/ml PDGF-BB and 0.5 U/ml heparin): 211 CPM
- 3H Thymidine (CPM Incorporated), (-) Heparin ([2]; 50 μM with 1 ng/ml PDGF-BB): 309 CPM
- Effect of adding heparin to the compound on [3H] thymidine incorporation (in words) ([2]; 0.5 U/ml unfractionated heparin, 1 ng/ml PDGF-BB): further inhibition
- IC50 ([2]; Papio anubis, 20 h, read-out: ED50 for the inhibition of PDGF-BB mitogenic activity): ~12.5 µM
